Our source for the IC50 and inhibition values is patent publication US20240174637A1, “DEGRADERS OF GRK2 AND USES THEREOF” (Sonata Therapeutics, Inc., priority 2021, published 2024).

Common to all, as to type: cell-based
One assay concerns PAXF1657 KO Clone #4. The assay is described as follows: 7-day cellular proliferation assay (CellTiter-Glo), PAXF1657 KO Clone #4. The procedure:
(§1) In order to identify compounds specific for GRK2, we generated two isogenic cell line pairs of the pancreatic cancer cell line PAXF1657, a pair of cells stably overexpressing GRK2 cDNA or the control empty vector and a cell line pair of PAXF1657 GRK2 knockout clonal cells versus non-targeting control clonal cells.
(§2) Proliferation Assay: Cellular anti-proliferative activity of compounds was assessed by using the pancreatic cancer cell line, PAXF1657, stably overexpressing GRK2 cDNA or the control empty vector, as well as the parental urinary bladder cancer cell line, 5637. In addition, we also took advantage of GRK2 knockout cell lines that were generated via CRISPR. Cell lines were seeded into tissue culture treated, white-walled, 96-well plates at a density of 500 cells/well in RPMI1640 media supplemented with 10% H.I. FBS and penicillin/streptomycin. Plates were incubated overnight at 37° C., 5% CO2 to allow cells to adhere to the wells. GRK2 inhibitors were added to the cells using a 10-point dilution series with a final concentration ranging from 30 μM-0.0002 μM in 0.3% DMSO. At the time of compound addition, a set of plates, that were not treated with compounds, were collected and cell viability was measured using CellTiter-Glo (Promega). CellTiter-Glo reagent was added to the designed plates and luminescence was measuring using a Biotek Synergy plate reader. The compound treated cells were incubated for 3 days at 37° C., 5% CO2. The media was then aspirated from each well and replaced with fresh media containing GRK2 inhibitors. The compound treated cells were then incubated for an additional 4 days at 37° C., 5% CO2. Cell viability was assessed and at end of the 7-day compound treatment by CellTiterGlo.

In the next assay the test system is PAXF1657 EV. Kind of assay: 7-day cellular proliferation assay (CellTiter-Glo), PAXF1657 EV. The procedure:
as §1, §2
A general note: ATP-based viability assays read luminescence as a measure of living cells.

The target in another assay is T1, GRK2 (Homo sapiens, UniProt P25098).
T1 sequence (P25098 1-689): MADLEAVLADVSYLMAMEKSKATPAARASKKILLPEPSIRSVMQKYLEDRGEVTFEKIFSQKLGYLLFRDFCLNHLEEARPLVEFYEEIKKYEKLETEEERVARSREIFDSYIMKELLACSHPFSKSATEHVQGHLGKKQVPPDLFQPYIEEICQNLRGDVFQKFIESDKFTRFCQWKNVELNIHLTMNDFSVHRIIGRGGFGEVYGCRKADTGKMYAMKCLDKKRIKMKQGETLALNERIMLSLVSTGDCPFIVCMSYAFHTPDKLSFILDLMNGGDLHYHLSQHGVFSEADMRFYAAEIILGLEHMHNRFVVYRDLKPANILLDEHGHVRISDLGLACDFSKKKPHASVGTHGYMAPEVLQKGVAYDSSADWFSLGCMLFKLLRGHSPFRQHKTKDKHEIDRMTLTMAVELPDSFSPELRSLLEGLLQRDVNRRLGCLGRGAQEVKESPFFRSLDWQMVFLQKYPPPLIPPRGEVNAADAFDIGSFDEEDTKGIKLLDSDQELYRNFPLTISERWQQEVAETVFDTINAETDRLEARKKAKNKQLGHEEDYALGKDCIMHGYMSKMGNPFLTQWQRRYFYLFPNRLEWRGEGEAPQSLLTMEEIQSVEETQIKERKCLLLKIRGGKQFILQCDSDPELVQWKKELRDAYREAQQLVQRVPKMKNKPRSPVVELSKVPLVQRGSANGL
Kind of assay: GRK2 Degradation Assay and Western Blot in PAXF1657 cells. The arrangement: endogenous in cells; host or cells: PAXF1657. The procedure: General Protocol: Degradation Assay and Western Blot. PAXF1657 cells were plated in 6-well, 24-well plates or 60 mm tissue culture treated dishes and incubated at 37° C. until 70% confluency. The media was aspirated, and the cells were treated with fresh media containing the compounds in the concentration range of 0 μM to 10 μM for a period of 6 to 24 hours. At the desired time points the cells were washed twice with cold PBS and lysed with lysis buffer (ice cold PBS+1% NP40 with 1/100 protease/phosphatase inhibitors) on ice for 8 mins followed by sonication at 70% intensity pulses for 10 seconds. The cells were centrifuged at 20000 g for 8 min at 4° C. The supernatants were collected and stored at −80° C.
Samples were mixed with NuPAGE LDS sample buffer and NuPAGE sample reducing buffer (3×), vortexed and heated at 95° C. for 10 min, and then analyzed by SDS-PAGE (NuPAGE 4-12%) followed by transfer to nitrocellulose membrane. […] The membranes were washed three times with TBST and incubated with GRK2 or R-actin antibodies in 5% milk in TBST at 4° C. overnight. The membranes were washed three times with TBST and incubated with anti-mouse IgG-HRP or anti-rabbit IgG-HRP at room temperature for 2 hours in 5% milk in TBST. The membranes were washed three times with TBST and developed with ECL Dura, ECL femto or ECL atto substrates.
(In general: A western blot detects proteins with antibodies after separation by electrophoresis.)

Where [1] appears, read: 168 h, 7-day, read-out: 7-day proliferation assay: IC50 GeoMean (uM) [Cell Line: PAXF1657 KO Clone #4].
Where [2] appears, read: 168 h, 7-day, read-out: 7-day proliferation assay: IC50 GeoMean (uM) [Cell Line: PAXF1657 EV].
[3] abbreviates: 0.3 uM, PAXF1657 EV, 24 hrs, read-out: % GRK2 degradation at 0.3 uM in PAXF1657 EV (24 hrs).
Where [4] appears, read: 1 uM, PAXF1657 EV, 24 hrs, read-out: % GRK2 degradation at 1 uM in PAXF1657 EV (24 hrs).
Setting [5] is: 3 uM, PAXF1657 EV, 24 hrs, read-out: % GRK2 degradation at 3 uM in PAXF1657 EV (24 hrs).
[6] abbreviates: Conc 0.3 uM, read-out: Degradation Assay - 3 point: Degradation (%).
The mark [7] stands for this setting: Conc 1 uM, read-out: Degradation Assay - 3 point: Degradation (%).
[8] abbreviates: Conc 3 uM, read-out: Degradation Assay - 3 point: Degradation (%).

Read-outs that look alike come from different tables or passages of the source.

With `Cn1c(CNc2cccc(C(=O)NCc3cccc(OCCCCCn4cc(CCCCC(=O)Nc5cccc6c5CN(C5CCC(=O)NC5=O)C6=O)nn4)c3)c2)nnc1-c1ccncn1` (stereo not drawn) [Compound D58], the IC50 in the assay with PAXF1657 KO Clone #4 (setting [1]) was > 10 µM; in the assay on PAXF1657 EV (setting [2]), 1 to 10 µM. On GRK2 (setting [3]), the inhibition at 0.3 µM was 7%. Further, the inhibition at 1 µM at GRK2 (setting [4]) turned out to be 41%. Also, at GRK2 (setting [5]), the inhibition at 3 µM amounted to 68%.

With `Cn1c(CNc2cccc(C(=O)NCc3cccc(OCCCCCCCn4cc(CCCC(=O)Nc5cccc6c5CN(C5CCC(=O)NC5=O)C6=O)nn4)c3)c2)nnc1-c1ccncn1` (stereo not drawn) [Compound D61], the IC50 in the assay on PAXF1657 KO Clone #4 (setting [1]) and with PAXF1657 EV (setting [2]) was > 10 µM throughout. In addition, the inhibition at 0.3 µM at GRK2 (setting [3]) was 28%. The inhibition at 1 µM at GRK2 (setting [4]) was determined as 55%. In addition, the inhibition at 3 µM at GRK2 (setting [5]) was found to be 52%.

As to `Cc1ncsc1-c1ccc(CNC(=O)[C@@H]2C[C@@H](O)CN2C(=O)[C@@H](NC(=O)CCCc2cn(CCCCCOc3cccc(CNC(=O)c4cccc(NCc5nnc(-c6ccncn6)n5C)c4)c3)nn2)C(C)(C)C)cc1` [Compound D81], the IC50 in the assay with PAXF1657 KO Clone #4 (setting [1]) and with PAXF1657 EV (setting [2]) was > 10 µM each time. Further, at GRK2 (setting [3]), the inhibition at 0.3 µM is -3%. Further, the inhibition at 1 µM at GRK2 (setting [4]) was 1%. The inhibition at 3 µM on GRK2 (setting [5]) was 5%.

`Cn1c(CNc2cccc(C(=O)NCc3cccc(OCCOCCOCCOCCC(=O)Nc4cccc5c4CN(C4CCC(=O)NC4=O)C5=O)c3)c2)nnc1-c1ccncn1` (stereo not drawn) [Compound D107]: the IC50 in the assay on PAXF1657 KO Clone #4 (setting [1]) and in the assay on PAXF1657 EV (setting [2]) was > 10 µM in each case. Moreover, the inhibition at 1 µM on GRK2 (setting [4]) stood at 19%. On GRK2 (setting [5]), the inhibition at 3 µM is 20%.

Turning to `Cn1c(CNc2cccc(C(=O)NCc3cccc(OCCCCCC(=O)NCCOCCOCCOCCC(=O)Nc4cccc5c4CN(C4CCC(=O)NC4=O)C5=O)c3)c2)nnc1-c1ccncn1` (stereo not drawn) [Compound D113], the IC50 in the assay on PAXF1657 KO Clone #4 (setting [1]) and in the assay on PAXF1657 EV (setting [2]) was > 10 µM each time. The inhibition at 1 µM on GRK2 (setting [4]) was -6%. The inhibition at 3 µM at GRK2 (setting [5]) was 0%.

As for `Cn1c(CNc2cccc(C(=O)NCc3cccc(OCCCCCCC(=O)NCCOCCOCCOCCC(=O)Nc4cccc5c4CN(C4CCC(=O)NC4=O)C5=O)c3)c2)nnc1-c1ccncn1` (stereo not drawn) [Compound D114], the IC50 in the assay with PAXF1657 KO Clone #4 (setting [1]) and in the assay on PAXF1657 EV (setting [2]) was > 10 µM each time. For the same molecule, the inhibition at 1 µM on GRK2 (setting [4]) came to 32%. Moreover, the inhibition at 3 µM on GRK2 (setting [5]) turned out to be 15%.

Turning to `Cc1ncsc1-c1ccc(CNC(=O)[C@@H]2C[C@@H](O)CN2C(=O)[C@@H](NC(=O)CCOCCOCCOCCNC(=O)CCCCOc2cccc(CNC(=O)c3cccc(NCc4nnc(-c5ccncn5)n4C)c3)c2)C(C)(C)C)cc1` [Compound D115], the IC50 with PAXF1657 KO Clone #4 (setting [1]) is 1 to 10 µM; with PAXF1657 EV (setting [2]), > 10 µM. For the same molecule, the inhibition at 1 µM at GRK2 (setting [4]) is -14%. For the same molecule, the inhibition at 3 µM at GRK2 (setting [5]) is -2%.

As for `Cn1c(CNc2cccc(C(=O)N[C@H]3CCOc4ccc(OCCCCCOCCCOCC(=O)Nc5cccc6c5CN(C5CCC(=O)NC5=O)C6=O)cc43)c2)nnc1-c1ccncn1` (stereo partly drawn) [Compound D155, N-((4S)-6-(5-(3-(2-(2-(2,6-dioxopiperidin-3-yl)-1-oxoisoindolin-4-ylamino)-2-oxoethoxy)propoxy)pentyloxy)chroman-4-yl)-3-((4-methyl-5-(pyrimidin-4-yl)-4H-1,2,4-triazol-3-yl)methylamino)benzamide], the IC50 with PAXF1657 KO Clone #4 (proliferation, read-out: GeoMean IC50 (uM) PAXF1657 KO Clone #4) is > 30 µM; in the assay with PAXF1657 EV (proliferation, read-out: GeoMean IC50 (UM) PAXF1657 EV), > 30 µM. The inhibition at 0.3 µM at GRK2 (setting [6]) was 61.9%. Moreover, the inhibition at 1 µM on GRK2 (setting [7]) amounted to 58.1%. Also, the inhibition at 3 µM at GRK2 (setting [8]) is -21.9%.

`Cc1ncsc1-c1ccc(CNC(=O)[C@@H]2C[C@@H](O)CN2C(=O)[C@@H](NC(=O)COCCCOCCCCCOc2cccc([C@H](C)NC(=O)c3cccc(NCc4nnc(-c5ccncn5)n4C)c3)c2)C(C)(C)C)cc1` [Compound D184, (2S,4R)-1-((S)-3,3-dimethyl-2-(2-(3-((5-(3-((S)-1-(3-(((4-methyl-5-(pyrimidin-4-yl)-4H-1,2,4-triazol-3-yl)methyl)amino)benzamido)ethyl)phenoxy)pentyl)oxy)propoxy)acetamido)butanoyl)-4-hydroxy-N-(4-(4-methylthiazol-5-yl)benzyl)pyrrolidine-2-carboxamide]: at GRK2 (setting [6]), the inhibition at 0.3 µM is 1.96%. The inhibition at 1 µM at GRK2 (setting [7]) amounted to 17.7%. The inhibition at 3 µM at GRK2 (setting [8]) was 20.6%.

Turning to `Cn1c(CNc2cccc(C(=O)N[C@@H]3CCOc4ccc(OCCCCCOCCCOCC(=O)Nc5cccc6c5CN(C5CCC(=O)NC5=O)C6=O)cc43)c2)nnc1-c1ccncn1` (stereo partly drawn) [Compound D192, N-((4R)-6-(5-(3-(2-(2-(2,6-dioxopiperidin-3-yl)-1-oxoisoindolin-4-ylamino)-2-oxoethoxy)propoxy)pentyloxy)chroman-4-yl)-3-((4-methyl-5-(pyrimidin-4-yl)-4H-1,2,4-triazol-3-yl)methylamino)benzamide], the inhibition at 0.3 µM on GRK2 (setting [6]) was 13.5%. Besides, the inhibition at 1 µM on GRK2 (setting [7]) worked out at 37.4%. Moreover, the inhibition at 3 µM on GRK2 (setting [8]) is 56.2%.

As for `C[C@H](NC(=O)c1cccc(NCc2nnc(-c3ccncn3)n2C)c1)c1cccc(OCCCCCCOCCOCC(=O)Nc2cccc3c2CN(C2CCC(=O)NC2=O)C3=O)c1` (stereo partly drawn) [Compound D193, N-((1S)-1-(3-((6-(2-(2-((2-(2,6-dioxopiperidin-3-yl)-1-oxoisoindolin-4-yl)amino)-2-oxoethoxy)ethoxy)hexyl)oxy)phenyl)ethyl)-3-(((4-methyl-5-(pyrimidin-4-yl)-4H-1,2,4-triazol-3-yl)methyl)amino)benzamide], the inhibition at 0.3 µM on GRK2 (setting [6]) was determined as 19.3%. Also, on GRK2 (setting [7]), the inhibition at 1 µM amounted to 16.7%. The inhibition at 3 µM at GRK2 (setting [8]) stood at 29.6%.

In the case of `C[C@@H](NC(=O)c1cccc(NCc2nnc(-c3ccncn3)n2C)c1)c1cccc(OCCCCCOCCCOCC(=O)Nc2cccc3c2CN(C2CCC(=O)N(C)C2=O)C3=O)c1` (stereo partly drawn) [Compound D194, N-((1R)-1-(3-((5-(3-(2-((2-(1-methyl-2,6-dioxopiperidin-3-yl)-1-oxoisoindolin-4-yl)amino)-2-oxoethoxy)propoxy)pentyl)oxy)phenyl)ethyl)-3-(((4-methyl-5-(pyrimidin-4-yl)-4H-1,2,4-triazol-3-yl)methyl)amino)benzamide], the inhibition at 0.3 µM on GRK2 (setting [6]) turned out to be 25%. Besides, at GRK2 (setting [7]), the inhibition at 1 µM came out at 15%. Further, the inhibition at 3 µM at GRK2 (setting [8]) amounted to 0%.
